Measurements published in US9643974B2, “Amino-substituted imidazopyridazines” (Bayer Intellectual Property GmbH, priority 2011, dated 2017).
Structures can show the parent of a compound that is named as a salt.

Columns and labels:
human full-length MKNK1 = molecular target: T1, human full-length MKNK1 (Homo sapiens, UniProt Q9BUB5, T385D); assay: MKNK1 kinase high ATP assay (TR-FRET-based); assay type: biochemical; conditions: ATP final conc. 2 mM, 15 min preincubation, 30 min reaction at 22° C.
T1 construct: purchased Carna Biosciences 02-145; host or cells: insect cells (baculovirus expression system)
Protocol: MKNK1 Kinase High ATP Assay
MKNK1-inhibitory activity at high ATP of compounds of the present invention after their preincubation with MKNK1 was quantified employing the TR-FRET-based MKNK1 high ATP assay as described in the following paragraphs.
(§1) A recombinant fusion protein of Glutathione-S-Transferase (GST, N-terminally) and human full-length MKNK1 (amino acids 1-424 and T344D of accession number BAA 19885.1), expressed in insect cells using baculovirus expression system and purified via glutathione sepharose affinity chromatography, was purchased from Carna Biosciences (product no 02-145) and used as enzyme. As substrate for the kinase reaction the biotinylated peptide biotin-Ahx-IKKRKLTRRKSLKG (C-terminus in amide form) was used, which can be purchased e.g. from the company Biosyntan (Berlin-Buch, Germany).
(§2) For the assay 50 nL of a 100 fold concentrated solution of the test compound in DMSO was pipetted into a black low volume 384 well microtiter plate (Greiner Bio-One, Frickenhausen, Germany), 2 μL of a solution of MKNK1 in aqueous assay buffer [50 mM HEPES pH 7.5, 5 mM magnesium chloride, 1.0 mM dithiothreitol, 0.005% (v/v) Nonidet-P40 (Sigma)] was added and the mixture was incubated for 15 min at 22° C. to allow pre-binding of the test compounds to the enzyme before the start of the kinase reaction. Then the kinase reaction was started by the addition of 3 μL of a solution of adenosine-tri-phosphate (ATP, 3.3 mM=>final conc. in the 5 μL assay volume is 2 mM) and substrate (0.1 μM=>final conc. in the 5 μL assay volume is 0.06 μM) in assay buffer and the resulting mixture was incubated for a reaction time of 30 min at 22° C. The concentration of MKNK1 was adjusted depending of the activity of the enzyme lot and was chosen appropriate to have the assay in the linear range, typical concentrations were in the range of 0.003 μg/mL. The reaction was stopped by the addition of 5 μL of a solution of TR-FRET detection reagents (5 nM streptavidine-XL665 [Cisbio Bioassays, Codolet, France] and 1 nM anti-ribosomal protein S6 (pSer236)-antibody from Invitrogen [#44921G] and 1 nM LANCE EU-W1024 labeled ProteinG [Perkin-Elmer, product no. AD0071]) in an aqueous EDTA-solution (100 mM EDTA, 0.1% (w/v) bovine serum albumin in 50 mM HEPES pH 7.5).
(§3) The resulting mixture was incubated for 1 h at 22° C. to allow the formation of complex between the phosphorylated biotinylated peptide and the detection reagents. Subsequently the amount of phosphorylated substrate was evaluated by measurement of the resonance energy transfer from the Eu-chelate to the streptavidine-XL. Therefore, the fluorescence emissions at 620 nm and 665 nm after excitation at 350 nm were measured in a TR-FRET reader, e.g. a Rubystar (BMG Labtechnologies, Offenburg, Germany) or a Viewlux (Perkin-Elmer). The ratio of the emissions at 665 nm and at […] was taken as the measure for the amount of phosphorylated substrate. The data were normalised (enzyme reaction without inhibitor=0% inhibition, all other assay components but no enzyme=100% inhibition).

human full-lengt MKNK1 = molecular target: T2, human full-lengt MKNK1 (Homo sapiens, UniProt Q9BUB5, T385D); assay: MKNK1 kinase assay (MKNK1 TR-FRET assay); assay type: biochemical; conditions: ATP final conc. 10 μM, 15 min preincubation, 45 min reaction at 22° C.
T2 construct: purchased Carna Biosciences 02-145; host or cells: insect cells (baculovirus expression system)
Description: MKNK1-inhibitory activity of compounds of the present invention was quantified employing the MKNK1 TR-FRET assay as described in the following paragraphs.
as §1, with “human full-lengt” for “human full-length”, “was used” for “was used,”, “e.g. form” for “e.g. from”
as §2, with “16.7 μM=>final” for “3.3 mM=>final”, “10 μM)” for “2 mM)”, “45” for “30”, “0.05 μg/ml.” for “0.003 μg/mL.”
as §3, with “inhibition). Usually the test compounds were tested on the same microtiterplate in 11 different concentrations in the range of 20 μM to 0.1 nM (20 μM, 5.9 μM, 1.7 μM, 0.51 μM, 0.15 μM, 44 nM, 13 nM, 3.8 nM, 1.1 nM, 0.33 nM and 0.1 nM, the dilution series prepared separately before the assay on the level of the 100 fold concentrated solutions in DMSO by serial 1:3.4 dilutions) in duplicate values for each concentration and […] were calculated by a 4 parameter fit.” for “inhibition).”

T1 sequence (Q9BUB5 1-424 isoform Q9BUB5-2 T344D): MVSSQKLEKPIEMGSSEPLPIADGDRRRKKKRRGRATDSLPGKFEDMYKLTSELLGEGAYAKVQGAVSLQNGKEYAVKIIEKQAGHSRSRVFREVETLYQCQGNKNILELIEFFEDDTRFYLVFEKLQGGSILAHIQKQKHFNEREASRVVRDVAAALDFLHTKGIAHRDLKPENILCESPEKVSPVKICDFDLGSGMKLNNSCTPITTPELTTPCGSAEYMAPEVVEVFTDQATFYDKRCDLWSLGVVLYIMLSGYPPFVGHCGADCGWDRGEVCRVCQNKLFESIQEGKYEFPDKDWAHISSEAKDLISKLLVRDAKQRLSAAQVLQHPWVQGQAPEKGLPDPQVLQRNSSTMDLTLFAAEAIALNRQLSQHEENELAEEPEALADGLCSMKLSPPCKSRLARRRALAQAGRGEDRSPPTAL
T2 sequence (Q9BUB5 1-424 isoform Q9BUB5-2 T344D): as above

IC50 (human full-length MKNK1)	IC50 (human full-lengt MKNK1)	Structure (SMILES)
53 nM	17 nM	N[C@H](COc1ccc2ncc(-c3cc4cnccc4o3)n2n1)c1ccccc1 [Example 1, (1S)-2-{[3-(Furo[3,2-c]pyridin-2-yl)imidazo[1,2-b]pyridazin-6-yl]oxy}-1-phenylethanamine]
136 nM	28 nM	C[C@H](CN)Oc1ccc2ncc(-c3cc4cnccc4o3)n2n1 [Example 8, (2R)-2-{[3-(Furo[3,2-c]pyridin-2-yl)imidazo[1,2-b]pyridazin-6-yl]oxy}propan-1-amine]
79 nM	14 nM	COc1nccc2oc(-c3cnc4ccc(OCC(C)(C)N)nn34)cc12 [Example 22, 1-{[3-(4-Methoxyfuro[3,2-c]pyridin-2-yl)imidazo[1,2-b]pyridazin-6-yl]oxy}-2-methylpropan-2-amine]
65 nM	21 nM	COc1nccc2oc(-c3cnc4ccc(OC[C@H](C)N)nn34)cc12 [Example 5, (2S)-1-{[3-(4-Methoxyfuro[3,2-c]pyridin-2-yl)imidazo[1,2-b]pyridazin-6-yl]-oxy}propan-2-amine]
4 nM	4 nM	CCOc1nccc2oc(-c3cnc4ccc(O[C@H]5C[C@H](N)C5)nn34)cc12 [Example 36, trans-3-{[3-(4-Ethoxyfuro[3,2-c]pyridin-2-yl)imidazo[1,2-b]pyridazin-6-yl]oxy}-cyclobutanamine]
34 nM	17 nM	CC(C)Oc1nccc2oc(-c3cnc4ccc(OC[C@H](C)N)nn34)cc12 [Example 19, (2S)-1-({3-[4-(Propan-2-yloxy)furo[3,2-c]pyridin-2-yl]imidazo[1,2-b]pyridazin-6-yl}oxy)propan-2-amine]
17 nM	7 nM	CC(C)Oc1nccc2oc(-c3cnc4ccc(O[C@H]5C[C@H](N)C5)nn34)cc12 [Example 37, trans-3-({3-[4-(Propan-2-yloxy)furo[3,2-c]pyridin-2-yl]imidazo[1,2-b]pyridazin-6-yl}oxy)cyclobutanamine]
65 nM	26 nM	C[C@H](N)COc1ccc2ncc(-c3cc4ccncc4o3)n2n1 [Example 12, (2S)-1-{[3-(Furo[2,3-c]pyridin-2-yl)imidazo[1,2-b]pyridazin-6-yl]oxy}propan-2-amine]
28 nM	13 nM	COc1nccc2oc(-c3cnc4ccc(O[C@H]5CCC[C@@H]5N)nn34)cc12 [Example 31, (1S,2S)-2-{[3-(4-Methoxyfuro[3,2-c]pyridin-2-yl)imidazo[1,2-b]pyridazin-6-yl]-oxy}cyclopentanamine]
4 nM	3 nM	CC(C)(C)COc1nccc2oc(-c3cnc4ccc(O[C@H]5C[C@H](N)C5)nn34)cc12 [Example 24, trans-3-({3-[4-(2,2-Dimethylpropoxy)furo[3,2-c]pyridin-2-yl]imidazo[1,2-b]-pyridazin-6-yl}oxy)cyclobutanamine]
31 nM	10 nM	COc1nccc2oc(-c3cnc4ccc(O[C@H]5CC[C@H](N)CC5)nn34)cc12 [Example 21, trans-4-{[3-(4-Methoxyfuro[3,2-c]pyridin-2-yl)imidazo[1,2-b]pyridazin-6-yl]-oxy}cyclohexanamine salt with formic acid]
91 nM	25 nM	N[C@@H](COc1ccc2ncc(-c3cc4cnccc4o3)n2n1)c1ccccc1 [Example 7, (1R)-2-{[3-(Furo[3,2-c]pyridin-2-yl)imidazo[1,2-b]pyridazin-6-yl]oxy}-1-phenylethanamine]
91 nM	20 nM	COc1nccc2oc(-c3cnc4ccc(OC[C@@H](N)c5ccccc5)nn34)cc12 [Example 4, (1S)-2-{[3-(4-Methoxyfuro[3,2-c]pyridin-2-yl)imidazo[1,2-b]pyridazin-6-yl]oxy}-1-phenylethanamine]
94 nM	48 nM	COc1nccc2oc(-c3cnc4ccc(OC[C@H](N)c5ccccc5)nn34)cc12 [Example 9, (1R)-2-{[3-(4-Methoxyfuro[3,2-c]pyridin-2-yl)imidazo[1,2-b]pyridazin-6-yl]oxy}-1-phenylethanamine]
